Data: patent publication US8937072B2, “Substituted cyanoaniline compounds, preparation and use thereof” (Sinochem Corporation, priority 2011, dated 2015)

System: cucumber downy mildew
Experiment: Protectant activity in vivo (whole plant) against cucumber downy mildew
Experimental: The method is as followed: The whole plant is used in this test. The compound is dissolved in a proper solvent to get mother solution. The proper solvent is selected from acetone, methanol, DMF and so on according to their dissolving capability to the sample. The volume rate of solvent and testing solution (v/v) is equal to or less than 5%. The mother solution is diluted with water containing 0.1% tween-80 to get the testing solution whose concentration is designed. The testing solution is sprayed to the host plant by a special plant sprayer. The plant is inoculated with fungus after 24 hours. According to the infecting characteristic of fungus, the plant is stored in a humidity chamber and then transferred into greenhouse after infection is finished. And the other plants are placed in greenhouse directly. The activity of compound is obtained by eyeballing after 7 days in common.

Compound	protectant activity against cucumber downy mildew in vivo (dose 400 mg/L)	also measured
COC(=O)c1ccc(Nc2c(Cl)c(Cl)c(C#N)c(C#N)c2Cl)cc1 [Compound A-11]	100%	–
N#Cc1c(Cl)c(Cl)c(Nc2ccc([N+](=O)[O-])cc2F)c(Cl)c1C#N [Compound A-14]	100%	protectant activity against cucumber downy mildew in vivo (dose 25 mg/L): 100%; protectant activity against cucumber downy mildew in vivo (dose 50 mg/L): 100%; protectant activity against cucumber downy mildew in vivo (dose 100 mg/L): 100%
N#Cc1c(Cl)c(Cl)c(Nc2cc([N+](=O)[O-])ccc2Cl)c(Cl)c1C#N [Compound A-16]	100%	–
N#Cc1c(Cl)c(Cl)c(Nc2ccc(C(F)(F)F)cc2Cl)c(Cl)c1C#N [Compound A-17]	100%	–
N#Cc1ccc(Nc2c(Cl)c(Cl)c(C#N)c(C#N)c2Cl)cc1C(F)(F)F [Compound A-27]	100%	–
N#Cc1c(Cl)c(Cl)c(Nc2ccc(F)c(F)c2F)c(Cl)c1C#N [Compound A-41]	100%	–
N#Cc1c(Cl)c(Cl)c(Nc2c(Cl)cc([N+](=O)[O-])cc2Cl)c(Cl)c1C#N [Compound A-44]	100%	protectant activity against cucumber downy mildew in vivo (dose 100 mg/L): 100%
N#Cc1c(Cl)c(Cl)c(Nc2c(Br)cc([N+](=O)[O-])cc2Br)c(Cl)c1C#N [Compound A-45]	100%	protectant activity against cucumber downy mildew in vivo (dose 25 mg/L): 100%; protectant activity against cucumber downy mildew in vivo (dose 50 mg/L): 100%; protectant activity against cucumber downy mildew in vivo (dose 100 mg/L): 100%
Cc1c(Cl)c([N+](=O)[O-])cc([N+](=O)[O-])c1Nc1c(Cl)c(Cl)c(C#N)c(C#N)c1Cl [Compound A-61]	100%	–
N#Cc1c(Cl)c(Cl)c(Nc2ccc(Br)cn2)c(Cl)c1C#N [Compound A-79]	100%	protectant activity against cucumber downy mildew in vivo (dose 100 mg/L): 100%
Cc1ccnc(Nc2c(Cl)c(Cl)c(C#N)c(C#N)c2Cl)c1 [Compound A-80]	100%	protectant activity against cucumber downy mildew in vivo (dose 100 mg/L): 100%
Cc1ccc(Nc2c(Cl)c(Cl)c(C#N)c(C#N)c2Cl)nc1 [Compound A-81]	100%	–
N#Cc1ccc(Nc2c(Cl)c(Cl)c(C#N)c(Cl)c2C#N)cc1 [Compound B-10]	100%	–
N#Cc1c(Cl)c(Cl)c(Nc2ccc(OC(F)(F)F)cc2)c(C#N)c1Cl [Compound B-12]	100%	–
COC(=O)c1ccc(Nc2c(Cl)c(Cl)c(C#N)c(Cl)c2C#N)cc1 [Compound B-13]	100%	–
N#Cc1c(Cl)c(Cl)c(Nc2cccc(Cl)c2Cl)c(C#N)c1Cl [Compound B-16]	100%	–
Cc1cc(Cl)ccc1Nc1c(Cl)c(Cl)c(C#N)c(Cl)c1C#N [Compound B-22]	100%	–
Cc1cccc(Cl)c1Nc1c(Cl)c(Cl)c(C#N)c(Cl)c1C#N [Compound B-23]	100%	–
N#Cc1c(Cl)c(Cl)c(Nc2ccc([N+](=O)[O-])cc2[N+](=O)[O-])c(C#N)c1Cl [Compound B-37]	100%	–
N#Cc1ccc(Nc2c(Cl)c(Cl)c(C#N)c(Cl)c2C#N)cc1C(F)(F)F [Compound B-40]	100%	the protectant activity (%) against cucumber downy mildew (12.5 mg/L): 30%; the protectant activity (%) against cucumber downy mildew (25 mg/L): 98%; the protectant activity (%) against cucumber downy mildew (50 mg/L): 100%; the protectant activity (%) against cucumber downy mildew (100 mg/L): 100%; protectant activity against cucumber downy mildew in vivo (dose 50 mg/L): 100%; protectant activity against cucumber downy mildew in vivo (dose 100 mg/L): 100%
CNC(=O)c1cc(Cl)cc(C)c1Nc1c(Cl)c(Cl)c(C#N)c(Cl)c1C#N [Compound B-62b]	100%	–
N#Cc1c(F)c(F)c(Nc2ccc([N+](=O)[O-])cc2Cl)c(C#N)c1F [Compound B-95]	100%	–
